Assay results taken from ChEMBL document CHEMBL4418260, “Cyclopentanecarboxamide derivatives, medicaments containing such compounds and their use” (2017).

How the values were obtained:
Type in all cases: cell-based
[1] = target: Fatty acid synthase (Mus musculus) (UniProt P19096); assay: Inhibition of FAS in mouse N42 cells assessed as [14C]-acetate incorporation at 10 uM preincubated for 60 mins followed by [14C]-acetate addition and measured after 4 hrs by beta scintillation counting method relative to control; parameters: scale not given: the % may be the effect or the level left
[2] = target: Fatty acid synthase (Mus musculus) (UniProt P19096); assay: Inhibition of FAS in mouse N42 cells assessed as [14C]-acetate incorporation at 100 uM preincubated for 60 mins followed by [14C]-acetate addition and measured after 4 hrs by beta scintillation counting method relative to control; parameters: scale not given: the % may be the effect or the level left
Fatty acid synthase = Fatty acid synthase (Homo sapiens, UniProt P49327); assay: Inhibition of human HeLa cell derived FAS preincubated for 60 mins in presence of acetyl coenzyme A and NADPH followed by malonyl coenzyme A addition and measured after 10 mins by fluorescence method
Sequence of Fatty acid synthase (P49327 whole entry): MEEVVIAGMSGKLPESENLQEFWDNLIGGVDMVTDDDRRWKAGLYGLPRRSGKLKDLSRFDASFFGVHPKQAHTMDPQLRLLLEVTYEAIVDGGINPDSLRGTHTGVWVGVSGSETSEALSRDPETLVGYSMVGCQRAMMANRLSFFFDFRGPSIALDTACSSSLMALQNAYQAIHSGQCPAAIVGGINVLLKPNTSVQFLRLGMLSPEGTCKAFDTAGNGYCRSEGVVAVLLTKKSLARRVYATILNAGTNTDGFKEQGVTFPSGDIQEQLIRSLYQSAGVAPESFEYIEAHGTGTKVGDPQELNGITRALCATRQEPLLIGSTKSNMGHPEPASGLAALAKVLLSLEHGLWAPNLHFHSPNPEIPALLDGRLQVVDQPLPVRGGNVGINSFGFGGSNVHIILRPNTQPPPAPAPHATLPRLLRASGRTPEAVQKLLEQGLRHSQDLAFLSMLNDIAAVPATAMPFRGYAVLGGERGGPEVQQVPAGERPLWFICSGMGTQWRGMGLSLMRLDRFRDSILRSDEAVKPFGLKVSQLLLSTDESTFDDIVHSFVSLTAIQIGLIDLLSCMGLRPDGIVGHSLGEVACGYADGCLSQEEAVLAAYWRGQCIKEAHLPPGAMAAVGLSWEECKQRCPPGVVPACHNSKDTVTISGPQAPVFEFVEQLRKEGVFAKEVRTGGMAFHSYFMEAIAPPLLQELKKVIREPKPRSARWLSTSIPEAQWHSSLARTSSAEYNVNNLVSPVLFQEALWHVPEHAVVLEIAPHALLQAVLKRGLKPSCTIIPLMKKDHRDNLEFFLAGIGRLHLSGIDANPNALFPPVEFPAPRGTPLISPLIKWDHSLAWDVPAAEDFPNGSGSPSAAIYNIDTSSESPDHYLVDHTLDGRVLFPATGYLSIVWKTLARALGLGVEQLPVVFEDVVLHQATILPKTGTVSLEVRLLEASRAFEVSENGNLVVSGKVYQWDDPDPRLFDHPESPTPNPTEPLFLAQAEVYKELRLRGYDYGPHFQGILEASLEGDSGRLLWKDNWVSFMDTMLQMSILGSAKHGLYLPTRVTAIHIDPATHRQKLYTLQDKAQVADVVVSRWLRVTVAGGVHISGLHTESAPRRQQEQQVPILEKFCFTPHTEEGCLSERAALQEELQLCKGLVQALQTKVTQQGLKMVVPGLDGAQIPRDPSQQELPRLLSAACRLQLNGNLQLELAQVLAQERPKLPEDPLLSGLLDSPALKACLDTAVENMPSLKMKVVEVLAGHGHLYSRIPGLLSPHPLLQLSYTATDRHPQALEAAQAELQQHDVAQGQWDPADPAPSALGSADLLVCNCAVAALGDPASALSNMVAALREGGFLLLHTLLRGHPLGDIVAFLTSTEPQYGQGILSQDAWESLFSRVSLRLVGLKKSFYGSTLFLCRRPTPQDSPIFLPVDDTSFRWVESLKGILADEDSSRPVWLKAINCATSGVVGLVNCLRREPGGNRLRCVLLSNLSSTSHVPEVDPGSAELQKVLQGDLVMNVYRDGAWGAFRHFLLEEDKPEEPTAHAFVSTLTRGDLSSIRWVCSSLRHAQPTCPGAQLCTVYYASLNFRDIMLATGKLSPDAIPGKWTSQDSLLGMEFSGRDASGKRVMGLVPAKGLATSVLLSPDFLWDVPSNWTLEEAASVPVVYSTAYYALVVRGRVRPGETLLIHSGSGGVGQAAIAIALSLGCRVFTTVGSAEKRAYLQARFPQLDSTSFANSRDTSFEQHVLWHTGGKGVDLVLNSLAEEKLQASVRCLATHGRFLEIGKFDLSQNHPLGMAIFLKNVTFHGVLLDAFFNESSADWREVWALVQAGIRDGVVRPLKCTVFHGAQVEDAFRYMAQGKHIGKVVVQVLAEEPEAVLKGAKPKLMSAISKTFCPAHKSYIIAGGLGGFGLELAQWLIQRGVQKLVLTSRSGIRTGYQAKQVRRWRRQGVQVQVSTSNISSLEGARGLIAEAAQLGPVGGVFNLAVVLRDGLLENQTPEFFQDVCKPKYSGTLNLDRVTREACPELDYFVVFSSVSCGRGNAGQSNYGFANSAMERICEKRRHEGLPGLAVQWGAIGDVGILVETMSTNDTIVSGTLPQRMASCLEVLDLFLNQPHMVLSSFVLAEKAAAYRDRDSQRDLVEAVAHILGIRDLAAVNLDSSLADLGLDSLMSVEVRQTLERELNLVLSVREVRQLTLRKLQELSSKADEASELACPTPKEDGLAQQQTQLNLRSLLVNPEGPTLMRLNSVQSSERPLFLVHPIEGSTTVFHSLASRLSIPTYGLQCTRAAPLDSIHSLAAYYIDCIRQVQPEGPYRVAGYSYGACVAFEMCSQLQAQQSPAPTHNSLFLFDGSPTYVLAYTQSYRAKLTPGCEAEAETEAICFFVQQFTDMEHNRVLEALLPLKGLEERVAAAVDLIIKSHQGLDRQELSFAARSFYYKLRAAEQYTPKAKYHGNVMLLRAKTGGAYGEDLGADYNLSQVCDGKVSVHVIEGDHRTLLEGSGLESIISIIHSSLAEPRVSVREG

Sequence of Fatty acid synthase (Mus musculus) (P19096 whole entry): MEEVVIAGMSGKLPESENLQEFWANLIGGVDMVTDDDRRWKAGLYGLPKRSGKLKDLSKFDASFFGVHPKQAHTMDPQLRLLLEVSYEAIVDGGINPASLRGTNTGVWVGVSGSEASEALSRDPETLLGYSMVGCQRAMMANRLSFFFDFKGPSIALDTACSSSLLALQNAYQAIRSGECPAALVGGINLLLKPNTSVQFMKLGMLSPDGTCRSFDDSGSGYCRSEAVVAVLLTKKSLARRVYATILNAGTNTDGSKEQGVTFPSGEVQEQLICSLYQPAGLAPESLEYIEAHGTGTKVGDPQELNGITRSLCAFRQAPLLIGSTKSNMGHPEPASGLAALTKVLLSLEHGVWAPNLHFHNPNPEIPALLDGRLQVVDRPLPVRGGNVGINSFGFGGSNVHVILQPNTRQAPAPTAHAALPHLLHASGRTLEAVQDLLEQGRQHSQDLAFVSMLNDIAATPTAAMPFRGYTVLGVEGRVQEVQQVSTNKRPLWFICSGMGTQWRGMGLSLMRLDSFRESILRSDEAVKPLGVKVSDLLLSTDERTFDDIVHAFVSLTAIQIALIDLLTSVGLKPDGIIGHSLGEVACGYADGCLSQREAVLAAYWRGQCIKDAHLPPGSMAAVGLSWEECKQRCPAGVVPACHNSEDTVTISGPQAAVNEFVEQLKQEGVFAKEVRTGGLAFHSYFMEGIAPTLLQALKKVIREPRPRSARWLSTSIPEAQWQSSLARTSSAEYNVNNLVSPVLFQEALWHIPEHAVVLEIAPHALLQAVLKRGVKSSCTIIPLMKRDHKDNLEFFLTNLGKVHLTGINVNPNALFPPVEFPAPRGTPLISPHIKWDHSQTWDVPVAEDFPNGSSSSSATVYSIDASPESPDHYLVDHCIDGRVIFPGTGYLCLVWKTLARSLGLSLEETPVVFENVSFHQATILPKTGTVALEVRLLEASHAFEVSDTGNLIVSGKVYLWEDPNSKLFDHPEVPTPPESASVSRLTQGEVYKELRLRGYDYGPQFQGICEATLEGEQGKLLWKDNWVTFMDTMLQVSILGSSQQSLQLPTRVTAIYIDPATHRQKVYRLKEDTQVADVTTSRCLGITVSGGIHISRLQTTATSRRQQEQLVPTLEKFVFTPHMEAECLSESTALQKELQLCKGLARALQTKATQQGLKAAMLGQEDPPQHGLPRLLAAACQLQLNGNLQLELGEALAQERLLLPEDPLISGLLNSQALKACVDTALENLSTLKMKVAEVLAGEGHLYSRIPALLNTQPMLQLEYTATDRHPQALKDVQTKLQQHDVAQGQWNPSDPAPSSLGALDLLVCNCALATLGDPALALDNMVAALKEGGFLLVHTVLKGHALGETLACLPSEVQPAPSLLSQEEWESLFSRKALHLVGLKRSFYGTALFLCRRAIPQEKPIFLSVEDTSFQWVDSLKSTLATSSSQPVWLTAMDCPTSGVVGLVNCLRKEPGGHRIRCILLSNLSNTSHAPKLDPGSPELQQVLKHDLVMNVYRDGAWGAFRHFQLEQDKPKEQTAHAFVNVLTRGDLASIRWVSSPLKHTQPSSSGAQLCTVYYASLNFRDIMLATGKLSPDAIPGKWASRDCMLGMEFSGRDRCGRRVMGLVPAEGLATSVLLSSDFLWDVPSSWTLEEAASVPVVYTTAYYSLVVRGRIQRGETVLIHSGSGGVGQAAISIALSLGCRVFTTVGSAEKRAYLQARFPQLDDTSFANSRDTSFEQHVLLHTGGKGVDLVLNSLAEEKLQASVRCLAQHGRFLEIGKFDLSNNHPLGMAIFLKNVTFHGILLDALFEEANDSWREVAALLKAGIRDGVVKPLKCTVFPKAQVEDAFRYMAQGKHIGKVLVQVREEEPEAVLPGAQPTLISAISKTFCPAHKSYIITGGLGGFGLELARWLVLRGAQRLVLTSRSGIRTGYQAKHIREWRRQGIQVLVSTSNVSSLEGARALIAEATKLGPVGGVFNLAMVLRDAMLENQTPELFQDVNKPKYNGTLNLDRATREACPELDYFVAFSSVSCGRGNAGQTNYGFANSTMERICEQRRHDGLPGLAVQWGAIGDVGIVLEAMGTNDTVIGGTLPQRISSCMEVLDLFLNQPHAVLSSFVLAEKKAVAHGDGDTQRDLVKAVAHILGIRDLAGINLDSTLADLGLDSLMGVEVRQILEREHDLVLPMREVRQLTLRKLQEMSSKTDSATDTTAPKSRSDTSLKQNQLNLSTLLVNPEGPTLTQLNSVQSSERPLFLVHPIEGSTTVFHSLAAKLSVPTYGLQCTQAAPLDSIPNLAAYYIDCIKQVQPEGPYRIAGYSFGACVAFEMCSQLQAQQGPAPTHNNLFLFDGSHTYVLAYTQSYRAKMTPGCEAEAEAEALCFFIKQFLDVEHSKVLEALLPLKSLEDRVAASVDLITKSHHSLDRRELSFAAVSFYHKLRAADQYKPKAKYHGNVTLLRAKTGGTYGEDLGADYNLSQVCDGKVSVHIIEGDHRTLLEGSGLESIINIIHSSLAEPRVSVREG

## CCCC(=O)N[C@H]1CC[C@@H](C(=O)N(C)c2ccc(-c3nc4ccccc4o3)cc2)C1
[1]
  Activity: 81%

## C/C=C/C/C=C/CCC(=O)[C@H]1O[C@H]1C(N)=O
[2]
  Activity: 73.3%

## CC(=O)N[C@H]1CC[C@@H](C(=O)N(C)c2ccc(-c3nc4ccccc4o3)cc2)C1
[1]
  Activity: 81.7%

## CCC(=O)N[C@H]1CC[C@@H](C(=O)N(C)c2ccc(-c3nc4ccccc4[nH]3)cc2)C1
[1]
  Activity: 80.8%

## CCC(=O)N[C@H]1CC[C@@H](C(=O)N(C)c2ccc(-c3nc4ccccc4o3)cc2)C1
[1]
  Activity: 64.1%

## CCC(=O)N[C@H]1CC[C@@H](C(=O)N(C)c2ccc(-c3nc4ccccc4n3C)cc2)C1
[1]
  Activity: 85.7%

## CN(C)CCCCCC(=O)N[C@H]1CC[C@@H](C(=O)N(C)c2ccc(-c3nc4ccccc4o3)cc2)C1
Fatty acid synthase
  IC50: 500 to 3000 nM

## CCC(=O)N[C@H]1CC[C@@H](C(=O)N(C)c2ccc(-c3ccccc3)cc2)C1
[1]
  Activity: 76.8%
